For data set [1] the following is noted: Crystal; visual observation.
Data set [2] in a line: Molar enthalpy of transition or fusion. As to conditions: Crystal; DSC.

± gives the expanded uncertainty stated by the source.

Take `Oc1ccc2ccccc2c1` [2-hydroxynaphthalene]: the Normal melting temperature in data set [1] stood at 121.20 ± 1.5 °C. In addition, the “Molar enthalpy of transition or fusion” value in data set [2] worked out at 5.04 ± 0.717 kcal/mol.

These data come from the NIST ThermoML archive (doi:10.1021/je100358e).
